We go through four molecules from patent US4205164A, “Antibiotic A201C, A201D and A201E” (priority 1979, dated 1980).

Values after ≈ are worked out from the molar mass of the structure shown. Where two headings read alike, the source gives them in different places.

One series concerns Staph. aureus V41. The experiment in a line: MIC by standard agar-dilution test, Staph. aureus V41. As to conditions: Staphylococcus aureus. In kind it is cell-based. The source says: (§1) The minimal inhibitory concentrations (MIC's) at which A201C, A201D, and A201E inhibit selected Gram positive bacteria, as determined by standard agar-dilution tests, are summarized in Table I: […]

Another series deals with Staph. aureus X400. The experiment in a line: MIC by standard agar-dilution test, Staph. aureus X400. In kind it is cell-based. As to conditions: Staphylococcus aureus.
Excerpt: as §1

The test system of another series is Streptococcus Park. The experiment in a line: MIC by standard agar-dilution test, Streptococcus Park. Format: cell-based.
Excerpt: as §1

A further series has as its system Streptococcus C203. The experiment in a line: MIC by standard agar-dilution test, Streptococcus C203. Format: cell-based.
Excerpt: as §1

The next series concerns Staph. epi. Epi2. The experiment in a line: MIC by standard agar-dilution test, Staph. epi. Epi2. Format: cell-based.
Excerpt: as §1

In another series the test system is H. influ. R252. The experiment in a line: MIC by standard agar-dilution test, H. influ. R252. Format: cell-based.
Another series has as its system Staph. epi. Epi1. Description: MIC by standard agar-dilution test, Staph. epi. Epi1. Format: cell-based.
Excerpt: as §1

The subject of a further series is Streptococcus X66. The experiment in a line: MIC by standard agar-dilution test, Streptococcus X66. Format: cell-based.
Excerpt: as §1

For a further series, the system named is Streptococcus 9960. The experiment in a line: MIC by standard agar-dilution test, Streptococcus 9960. As to conditions: Streptococcus 9960, agar dilution. Format: cell-based.
Excerpt: as §1

The next series deals with Staph. aureus X1.1. The experiment in a line: MIC by standard agar-dilution test, Staph. aureus X1.1. Conditions: Staphylococcus aureus; Staph. aureus X1.1, agar dilution. In kind it is cell-based.
Excerpt: as §1

A further series relates to H. influ. HOLT. Description: MIC by standard agar-dilution test, H. influ. HOLT. Format: cell-based.
The subject of a further series is Staph. aureus S13E. The experiment in a line: MIC by standard agar-dilution test, Staph. aureus S13E. In kind it is cell-based. Conditions: Staphylococcus aureus.
Excerpt: as §1

For series [1], the system named is Diplococcus pneumoniae Park I. Description: Therapy of mouse infection, Diplococcus pneumoniae Park I. Format: in vivo, Mice. Conditions: 1 and 5 hour post infection, 7 days. Here is the method:
(§2) One hour and five hours later the mice are given a subcutaneous (S.C.) dose of the compound in 60% propylene glycol. The compound is administered at five different dosage levels (eight mice for each dosage level). The animals are observed for 7 days and the number of survivors is noted. For each organism, the ED50 value is calculated using the method of W. Wick, J. Bacteriol. 81, 233 (1961).
(§3) ^b Compound administered subcutaneously (S.C.), 1 and 5 hour post

The test system of series [2] is Streptococcus pyogenes C203. The experiment in a line: Therapy of mouse infection, Streptococcus pyogenes C203. As to conditions: 1 and 5 hour post infection, 7 days. Format: in vivo, Mice. Here is the method:
as §2, §3

Another series in a line: pKa. In kind it is physicochemical. As to conditions: 66% dmf-h2o.
Series [3] relates to pathogenic microorganisms, particularly Gram positive bacteria. The experiment in a line: Inhibition of growth of pathogenic microorganisms (general statement). Format: cell-based.
Series [4] concerns Staphylococcus aureus 3055. The experiment in a line: Therapy of mouse infection, Staphylococcus aureus 3055. In kind it is in vivo, Mice. Conditions: 1 and 5 hour post infection, 7 days. Here is the method: as §2, §3
The test system of series [5] is experimental bacterial infections. Description: In vivo therapeutic activity against experimental bacterial infections (general statement). Conditions: mice. The protocol:
as §2

[6] abbreviates: H. influ. R252, agar dilution, read-out: MIC.

On to `COC(COC1OC(C)C(OC)C(OC)C1O)=C1OC(Oc2ccc(C=C(C)C(=O)NC3C(CO)OC(n4cnc5c(N(C)C)ncnc54)C3O)cc2)C(O)C1O` (stereo not drawn) [Factor A201A, reference compound], for which the MIC in the series with Staph. aureus V41 (Staph. aureus V41, agar dilution, read-out: MIC) is 16 µg/mL (≈ 19.9 µM); in the series on Staph. aureus X400, 1 µg/mL (≈ 1.25 µM); in the series with Streptococcus Park, 4 µg/mL (≈ 4.98 µM); in the series with Streptococcus C203 it was 0.25 µg/mL (≈ 0.311 µM); in the series with Staph. epi. Epi2 it was 8 µg/mL (≈ 9.96 µM); in the series on H. influ. R252 (setting [6]), 4 µg/mL (≈ 4.98 µM). Also, the minimum inhibitory concentration (MIC) against Staph. epi. Epi1 turned out to be 16 µg/mL (≈ 19.9 µM); with Streptococcus X66 it was 8 µg/mL (≈ 9.96 µM); against Streptococcus 9960, 64 µg/mL (≈ 79.7 µM); in the series with Staph. aureus X1.1 it was 1 µg/mL (≈ 1.25 µM); against H. influ. HOLT, 8 µg/mL (≈ 9.96 µM); against Staph. aureus S13E, 1 µg/mL (≈ 1.25 µM).

Regarding `COC(COC1OC(C)C(OC)C(OC)C1O)=C1OC(Oc2ccc(C=C(C)C(=O)NC3C(CO)OC(n4cnc5c(N(C)C)ncnc54)C3O)cc2O)C(O)C1O` (stereo not drawn) [Factor C], the MIC against Staph. aureus V41 (V41) is greater than 128 µg/mL; in the series on Staph. aureus X400 it was 8 µg/mL (≈ 9.77 µM); against Streptococcus Park, 8 µg/mL (≈ 9.77 µM); in the series with Streptococcus C203 it was 1 µg/mL (≈ 1.22 µM); with Staph. epi. Epi2, 64 µg/mL (≈ 78.2 µM); in the series on H. influ. R252, 32 µg/mL (≈ 39.1 µM). For the same molecule, the MIC against Staph. epi. Epi1 was 128 µg/mL (≈ 156 µM); with Streptococcus X66, 64 µg/mL (≈ 78.2 µM); against Streptococcus 9960, greater than 128 µg/mL; in the series with Staph. aureus X1.1, 8 µg/mL (≈ 9.77 µM); against H. influ. HOLT, 132 µg/mL (≈ 161 µM); in the series with Staph. aureus S13E, 8 µg/mL (≈ 9.77 µM). In addition, the “Survivors/Total No. of Mice” value in series [1] (4.378 mg/kg S.C.), in [1] (8.75 mg/kg S.C.), in series [1] (17.5 mg/kg S.C.), in series [1] (35 mg/kg S.C.), in series [1] (70 mg/kg S.C.) and in series [2] (2.19 mg/kg S.C.) was 0/8 throughout. Further, the “Survivors/Total No. of Mice” value in series [2] (4.375 mg/kg S.C.) is recorded as 4/8; in series [2] (8.75 mg/kg S.C.), 6/8; in series [2] (17.5 mg/kg S.C.), 8/8; in series [2] (35 mg/kg S.C.), 8/8; in series [4] (2.19 mg/kg S.C.), 0/8; in series [4] (4.375 mg/kg S.C.), 1/8. In addition, the “Survivors/Total No. of Mice” value in series [4] (8.75 mg/kg S.C.) is listed as 3/8; in [4] (17.5 mg/kg S.C.), 0/8; in series [4] (35 mg/kg S.C.), 5/8. For the same molecule, the 50% effective dose (ED50) in [1] (Streptococcus pneumoniae, sc, 168 h, S.C., IP infection 260 LD50's) was greater than 70 mg/kg; in series [2] (Streptococcus pyogenes, C203, sc, 168 h, S.C., IP infection 243 LD50's) it was 5.3 mg/kg; in series [4] (Staphylococcus aureus, 3055, sc, 168 h, S.C., IP infection 260 LD50's) it was 26 mg/kg. Further, the pKa in the series “pKa” worked out at 11.4. For the same molecule, the “inhibition of growth of pathogenic microorganisms” value (from here on “inhibition”) in [3] was “inhibit the growth of certain pathogenic microorganisms, particularly Gram positive bacteria”. Besides, the “in vivo therapeutic activity against experimental bacterial infections” value in [5] (listed as A201C) is recorded as “has shown in vivo therapeutic activity against experimental bacterial infections”; in series [5] (listed as Formula II), “has shown in vivo therapeutic activity against experimental bacterial infections in mice”.

Turning to `COC(CO)=C1OC(Oc2ccc(C=C(C)C(=O)NC3C(CO)OC(n4cnc5c(N(C)C)ncnc54)C3O)cc2)C(O)C1O` (stereo not drawn) [Factor D], the MIC with Staph. aureus V41 (V41) was greater than 128 µg/mL; against Staph. aureus X400 it was 64 µg/mL (≈ 102 µM); in the series with Streptococcus Park it was 64 µg/mL (≈ 102 µM); against Streptococcus C203, 8 µg/mL (≈ 12.7 µM); against Staph. epi. Epi2 it was 128 µg/mL (≈ 204 µM); in the series with H. influ. R252 (setting [6]) it was 64 µg/mL (≈ 102 µM). Also, the MIC with Staph. epi. Epi1 was 128 µg/mL (≈ 204 µM); against Streptococcus X66, greater than 128 µg/mL; against Streptococcus 9960 it was greater than 128 µg/mL; in the series on Staph. aureus X1.1, 32 µg/mL (≈ 50.9 µM); against H. influ. HOLT, 128 µg/mL (≈ 204 µM); against Staph. aureus S13E, 32 µg/mL (≈ 50.9 µM). The “inhibition” value in series [3] is recorded as “inhibit the growth of certain pathogenic microorganisms, particularly Gram positive bacteria”.

As to `COC(COC1OC(C)C(OC)C(OC)C1O)C1OC(Oc2ccc(C=C(C)C(=O)NC3C(CO)OC(n4cnc5c(N(C)C)ncnc54)C3O)cc2)C(O)C1O` (stereo not drawn) [Factor E], the MIC came to 128 µg/mL (≈ 159 µM) in the series with Staph. aureus V41 (V41); 16 µg/mL (≈ 19.9 µM) with Staph. aureus X400; 16 µg/mL (≈ 19.9 µM) against Streptococcus Park; 1 µg/mL (≈ 1.24 µM) in the series on Streptococcus C203; 64 µg/mL (≈ 79.5 µM) in the series with Staph. epi. Epi2; 32 µg/mL (≈ 39.8 µM) with H. influ. R252 (setting [6]). Besides, the MIC was 64 µg/mL (≈ 79.5 µM) in the series on Staph. epi. Epi1; 64 µg/mL (≈ 79.5 µM) against Streptococcus X66; greater than 128 µg/mL against Streptococcus 9960; 16 µg/mL (≈ 19.9 µM) against Staph. aureus X1.1; 32 µg/mL (≈ 39.8 µM) against H. influ. HOLT; 16 µg/mL (≈ 19.9 µM) in the series on Staph. aureus S13E. Also, the “inhibition” value in series [3] is given as “inhibit the growth of certain pathogenic microorganisms, particularly Gram positive bacteria”.
